How the values were obtained:
Bcl-xL = Bcl-xL (Homo sapiens, UniProt Q07817); assay: Co-immunoprecipitation of Bcl-xL ubiquitination in 293T cells; format: cell-based; settings: 293T cells with GST-Bcl-xL and HA-Ub, 1 µM, 4 h
Protocol: Cells were lysed in immunoprecipitation lysis buffer (#87787, Thermo Fisher Scientific) supplemented with protease and phosphatase inhibitor cocktail. Cell lysates were incubated with the indicated antibodies at 4 °C overnight, followed by incubation with Protein A/G Plus-Agarose beads (Santa Cruz Biotechnology) at 4 °C for 4 h. Immunoprecipitates were collected by centrifugation and washed three times with washing buffer. The complex was separated from the beads and then boiled for 10 min. The immunoprecipitates and inputs were analyzed by SDS-PAGE and immunoblot using the antibodies as indicated. […]
hydrochloride; DMAP = 4-dimethylaminopyridine; TFA = trifluoroacetic acid; DMF = N,N-dimethylformamide. (D) A representative western blot analysis of SALL4 in NIH-3T3 cells after being treated with SIAIS361034 as indicated for 24 h. (E) A representative western blot analysis of hemagglutinin (HA), Bcl-xL, and GAPDH following GST-Bcl-xL immunoprecipitation of protein extracts from 293T cells. Cells were cotransfected as indicated with GST-Bcl-xL and HA-tagged ubiquitin (HA-Ub) and then were treated with or without SIAIS361034 (1 µM) and MG132 (10 µM) as […]

[1] = tested on: bone growth of young mice; assay: Bone growth of young mice (body weight, Micro-CT, H&E, IHC); format: in vivo, mouse
Protocol: Skeleton Micro-CT images of mice were taken under anesthesia. The femurs were fixed and stored in 4% PFA at 4 °C. Mice and femurs were scanned using Inveon PET-CT (Siemens). Bone tissues were computed with Inveon Acquisition Workplace (IAW). Image data were visualized and analyzed by Inveon Viewer.
Femurs were fixed in 4% PFA and decalcified in 14% EDTA for 2 weeks at 4 °C. Bone tissues were embedded in paraffin. Thin sections were stained with hematoxylin and eosin (H&E) according to the manufacturer's instructions. For immunohistochemistry (IHC), paraffin-embedded sections of femurs were baked at 60 °C for 20 min, deparaffinized by xylene for 25 min, rehydrated through ethanol series, and incubated with citrate buffer at 95 °C for 20 min for antigen retrieval. Sections were incubated with the primary antibodies as indicated overnight at 4 °C, followed by goat anti-rabbit secondary antibody. The primary antibodies used in this study include Bcl-xL (1:2000, ab178844, Abcam) and Gli1 (1:100, 101156-T10, Sino Biological).

Wnt signaling pathway = assay: TCF/LEF luciferase reporter assay in LS174T cells; format: cell-based; settings: PGE2 1 μM, 24 h, SIAIS361034 10 μM, H-89 20 μM
Protocol: Cells seeded in 96-well plates were treated with various treatments as indicated. The luciferase activity in the cell lysates was measured using Dual-Luciferase Reporter Assay System (Promega, Madison, WI, USA) according to the manufacturer's instructions in a luminometer (Molecular Devices, Sunnyvale, CA). The firefly luciferase values were normalized to Renilla values. […]
μM) for 6 h. Data represent mean ± SD (n = 3). (C) TCF/LEF luciferase analysis of the effect of SIAIS361034 on Wnt signaling pathway in LS174T cells. The LS174T cellswere transfected with TCF/LEF luciferase reporter and Renilla-TK plasmids and […]
Data represent mean ± SD (n = 3).
(1 picture or pasted object on this page, not shown here)

[2] = tested on: Hh pathway (Gli-luciferase) provoked by Gli2; assay: Dual luciferase reporter assay, Hh activity initiated by ectopic Gli2-HA in light II cells; format: cell-based
Description: The TCF/LEF luciferase reporter plasmid, NF-κB luciferase reporter plasmid, and TK-Renilla luciferase plasmid were purchased from Promega (Madison, WI, USA). Smo plasmid was purchased from Origene (Rockville, MD, USA). The Smo mutant plasmids were generated from wild type Smo plasmid using QuickChange Site-Directed Mutagenesis kit from Agilent (Santa Clara, CA, USA) and confirmed by sequencing. Information on Smo mutants plasmids is provided in Supplementary data 2. The Gli1 plasmid and Gli2-HA plasmid were obtained from Addgene (Cambridge, MA, USA). Transient transfections were performed by Lipofectamine 2000 reagent from Invitrogen (Grand Island, NY, USA) according to the manufacturer's instructions.
Cells seeded in 96-well plates were treated with various treatments as indicated. The luciferase activity in the cell lysates was measured using Dual-Luciferase Reporter Assay System (Promega, Madison, WI, USA) according to the manufacturer's instructions in a luminometer (Molecular Devices, Sunnyvale, CA). The firefly luciferase values were normalized to Renilla values.

[3] = tested on: bone growth of young mice; assay: Bone growth of young mice (body weight, Micro-CT, H&E, IHC); format: in vivo, mouse; settings: 6-week-old mice treated P12 to P16
Bcl-2 and Mcl-1 = assay: Western blot of Bcl-2 and Mcl-1 in NIH-3T3 cells; format: cell-based; settings: 1 µM
Protocol: Cells were lysed in cell lysis buffer (50 mM Tris pH 8.0, 150 mM NaCl, 10% glycerol, 1 mM EDTA, 50 mM NaF, and 0.1% NP-40) supplemented with protease and phosphatase inhibitors. Total protein extracts of tissues were generated in radioimmunoprecipitation (RIPA) assay lysis buffer containing complete protease and phosphatase inhibitor cocktail. Protein content was quantified using the Pierce BCA Protein Assay Kit (#23225, Thermo Fisher Scientific). The proteins were separated by SDS-PAGE, electrophoretically transferred to polyvinylidene difluoride (PVDF) blotting membranes (#LC2002, Thermo Fisher Scientific), and subjected to routine immunoblot analysis with primary antibodies as follows: anti-Bcl-2 (#15071), anti-Mcl-1 (#94296), anti-VHL (#68547), anti-CRBN (#71810), and anti-Sufu (#2522) were obtained from Cell Signaling Technology (Danvers, Massachusetts, USA); anti-Bcl-xL (#ab32370), anti-Gli1 (#ab134906), and anti-Smoothened (#ab236465) were obtained from Abcam (Cambridge, CB2 0AX, UK); anti-GAPDH (#60004-1-Ig) and anti-β-tubulin (#10094-1-AP) were purchased from Proteintech Group, Inc. (Rosemont, IL 60018, USA). The results were quantified by densitometry using ImageJ software (NIH).

Bcl-xL, sequence (Q07817 whole entry, species assumed): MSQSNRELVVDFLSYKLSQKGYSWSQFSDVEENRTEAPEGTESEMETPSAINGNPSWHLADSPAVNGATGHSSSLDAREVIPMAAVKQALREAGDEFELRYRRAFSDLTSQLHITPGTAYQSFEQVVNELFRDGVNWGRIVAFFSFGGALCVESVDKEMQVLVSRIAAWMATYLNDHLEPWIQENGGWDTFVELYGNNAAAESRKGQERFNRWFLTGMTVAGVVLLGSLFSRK

With `CC1(C)CCC(c2ccc(Cl)cc2)=C(CN2CCN(c3ccc(C(=O)NS(=O)(=O)c4ccc(NCCCN5CCN(CCCC#Cc6cccc7c6CN(C6CCC(=O)NC6=O)C7=O)CC5)c(S(=O)(=O)C(F)(F)F)c4)cc3)CC2)C1` (centres unmarked) [SIAIS361034] the Bcl-xL ubiquitination (Bcl-xL) was “induce Bcl-xL ubiquitination”, the “columnar organization of chondrocytes in the growth plate (H&E)” value ([1]; cross sections of the femur, mice treated P12 to P16) was “not destroyed” and the “skeleton (Micro-CT)” value ([1]; mice at 6 weeks of age, treated P12 to P16) was “no abnormalities in the skeleton”. The “growth plate of femurs (Micro-CT) compared with Vehicle” value ([1]; mice treated P12 to P16) was “no significant difference”, the “levels of Bcl-xL in femurs (IHC)” value ([1]; mice treated P12 to P16) was “No change” and the “expression levels of Gli1 in femurs (IHC)” value ([1]; mice treated P12 to P16, compared with Vehicle) was “no alteration”. For the same compound, the “TCF/LEF luciferase activity (Wnt signaling) activated by PGE2” value (Wnt signaling pathway) was “failed to repress”, the “Hh activity evoked by ectopic expression of Gli2” value [2] was “significant potency” and the IC50 ([2]; ectopic Gli2-HA, 36 h) was 85.1 nM. The “platelets and other indispensable blood cells at the end of the experiment” value [3] was “no side effects” and the “levels of Bcl-2 and Mcl-1” value (Bcl-2 and Mcl-1) was “did not change the levels of Bcl-2 and Mcl-1”.

Reference: publication PMC9691367, “The PROTAC selectively degrading Bcl-xL represents a novel Hedgehog pathway inhibitor with capacity of combating resistance to Smoothened inhibitors while sparing bone growth” (Theranostics, 2022)
